Assays:
Aurora A = molecular target: T1, Aurora A (Homo sapiens, UniProt O14965); assay: Aurora2 (Aurora-A) enzymatic test, NuMA substrate phosphorylation, radioactivity detection; assay type: biochemical; conditions: 10 nM Aurora2, 500 nM NuMA, 1 μM ATP, 30 minutes, 37° C.; read-out: IC 50 Aurora A
T1 construct: Aurora2: whole recombinant protein comprising an N-terminal histidine tail; His (N); made in house; host or cells: E. coli
T1 sequence (O14965 1-403): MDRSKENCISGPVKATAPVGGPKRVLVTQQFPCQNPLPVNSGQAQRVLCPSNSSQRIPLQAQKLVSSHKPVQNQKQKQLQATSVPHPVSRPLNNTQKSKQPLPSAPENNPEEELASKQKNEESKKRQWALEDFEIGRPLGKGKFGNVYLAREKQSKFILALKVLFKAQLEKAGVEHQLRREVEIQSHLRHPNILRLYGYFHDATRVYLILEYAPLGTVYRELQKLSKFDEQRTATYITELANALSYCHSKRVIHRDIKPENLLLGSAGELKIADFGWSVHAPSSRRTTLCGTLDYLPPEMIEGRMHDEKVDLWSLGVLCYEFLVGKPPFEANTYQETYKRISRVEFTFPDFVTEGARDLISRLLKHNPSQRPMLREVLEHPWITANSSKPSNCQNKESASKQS
Procedure: The inhibitory effect of compounds with respect to the kinases Aurora1 and Aurora2 is determined by means of an enzymatic test using radioactivity detection.
The kinase activity of Aurora1 and Aurora2 is evaluated via the phosphorylation of the substrate Numa-histidine in the presence of radiolabelled ATP ([^33P]ATP) using 96-well Flashplate plates in which the nickel chelate is bound to the surface of the microplate. The amount of ^33P phosphate incorporated into the NuMA substrate is proportional to the activity of the enzyme Aurora1 or Aurora2.
Aurora2: whole recombinant protein comprising an N-terminal histidine tail, was expressed in E. coli and purified to more than 82%.
NuMA (nuclear protein that combines with the mitotic apparatus): 424-amino acid fragment, expressed in E. coli, the N-terminal end of which has been labelled with histidine, and used as substrate for the two Aurora enzymes.
The microplates used are 96-well Flash-Plate plates, nickel chelate (Perkin-Elmer, model SMP107).
The products to be evaluated are incubated in a reaction volume of 100 μL per well, in the presence of 10 nM of Aurora1 or Aurora2, 500 nM of NuMA substrate in a buffer composed of 50 mM Tris/HCl (pH 7.5), 50 mM NaCl, 5 mM MgCl2 (Aurora-B) or 10 mM MgCl2 (Aurora-A) and 1 mM DTT, at 37° C.
80 μL of enzyme/substrate incubation buffer are distributed in each well, followed by 10 μL of product to be evaluated, at variable concentrations. The reaction is initiated by adding 1 μM final of ATP containing 0.2 μCi of [^33P]ATP (10 μL). After incubating for 30 minutes, the reaction is quenched by simple removal of the reaction buffer and each well is washed twice with 300 μl of Tris/HCl buffer. The radioactivity is then measured in each well using a Packard, Top-Count model scintillation machine.
The control enzymatic activity of Aurora is expressed by the number of counts per minute obtained over 30 minutes after subtracting the background noise (reaction mixture containing no enzyme). The evaluation of the various test products is expressed as a percentage of inhibition of the Aurora activity relative to the control.

TIE2 = molecular target: T2, TIE2 (Homo sapiens, UniProt Q02763); assay: Tie2 phosphorylation of PLC test (GST-Tie2, FlashPlate); assay type: biochemical; conditions: GST-Tie2 intracellular domain 776-1124, GST-PLC substrate, 33P-ATP, one hour at 37° C.; read-out: IC 50 TIE2
T2 construct: amino acids of the intracellular domain 776-1124; made in house; host or cells: baculovirus expression (pFastBacGT)
Procedure: The coding sequence of human Tie2 corresponding to the amino acids of the intracellular domain 776-1124 was generated by PCR using the cDNA isolated from a human placenta as a model. This sequence was introduced into a pFastBacGT baculovirus expression vector in the form of a GST fusion protein.
The inhibitory effect of the molecules is determined in a test of phosphorylation of PLC with Tie2 in the presence of GST-Tie2 purified to about 80% homogeneity. The substrate is composed of the SH2-SH3 fragments of PLC expressed in the form of a GST fusion protein.
The kinase activity of Tie2 is measured in a MOPS 20 mM pH 7.2 buffer, containing 10 mM MgCl2, 10 mM MnCl2, 1 mM DTT, 10 mM of glycerophosphate. In a 96-well FlashPlate plate maintained on ice, a reaction mixture is deposited, composed of 70 μL of kinase buffer containing 100 ng of enzyme GST-Tie2 per well. Next, 10 μL of the test molecule diluted in DMSO to a maximum concentration of 10% are added. For a given concentration, each measurement is performed four times. The reaction is initiated by adding 20 μl of solution containing 2 μg of GST-PLC, 2 μm of cold ATP and 1 μCi of ^33P[ATP]. After incubation for one hour at 37° C., the reaction is stopped by adding 1 volume (100 μl) of 200 mM EDTA. After removal of the incubation buffer, the wells are washed three times with 300 μL of PBS. The radioactivity is measured on a MicroBeta 1450 Wallac.
The inhibition of the Tie2 activity is calculated and expressed as a percentage of inhibition relative to the control activity determined in the absence of compound.

T2 sequence (Q02763 776-1124): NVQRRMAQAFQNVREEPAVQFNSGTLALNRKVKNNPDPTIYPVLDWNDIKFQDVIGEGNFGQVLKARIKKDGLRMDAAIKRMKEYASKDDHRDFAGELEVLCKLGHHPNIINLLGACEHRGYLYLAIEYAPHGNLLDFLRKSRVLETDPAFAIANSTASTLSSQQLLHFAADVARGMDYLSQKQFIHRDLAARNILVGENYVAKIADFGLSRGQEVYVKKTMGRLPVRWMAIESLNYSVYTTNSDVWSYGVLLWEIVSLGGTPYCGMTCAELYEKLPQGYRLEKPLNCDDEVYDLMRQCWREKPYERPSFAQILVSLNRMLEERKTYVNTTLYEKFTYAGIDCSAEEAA

Structure (SMILES) | IC50 (Aurora A) | IC50 (TIE2)
COc1ccc(C)cc1NC(=O)Nc1ccc(-c2c(C(N)=O)[nH]c3cnccc23)cc1 [Example 2, 3-{4-[3-(2-Methoxy-5-methylphenyl)ureido]phenyl}-1H-pyrrolo[2,3-c]pyridine-2-carboxamide] | 0.222 µM | 0.021 µM
Cc1ccc(F)c(NC(=O)Nc2ccc(-c3c(C(N)=O)[nH]c4cnccc34)cc2)c1.O=C(O)C(F)(F)F [Example 5, 3-{4-[3-(2-Fluoro-5-methylphenyl)ureido]phenyl}-1H-pyrrolo[2,3-c]pyridine-2-carboxamide trifluoroacetate] | 0.131 µM | 0.047 µM
NC(=O)c1[nH]c2ncccc2c1-c1ccc(NC(=O)Nc2cc(C(F)(F)F)ccc2F)cc1 [Example 7, 3-{4-[3-(2-Fluoro-5-trifluoromethylphenyl)ureido]phenyl}-1H-pyrrolo[2,3-b]pyridine-2-carboxamide] | 0.553 µM | 0.009 µM
NC(=O)c1[nH]c2cnccc2c1-c1ccc(NC(=O)Nc2cc(C(F)(F)F)ccc2F)cc1 [Example 1, 3-{4-[3-(2-Fluoro-5-trifluoromethylphenyl)ureido]phenyl}-1H-pyrrolo[2,3-c]pyridine-2-carboxamide] | 0.172 µM | 0.004 µM
